Source: patent publication EP3300730A1, “THE MEDICAL USE OF 5,7-DIHYDROXY-3-(4-HYDROXYPHENYL)-4H-1-BENZOPIRAN-4-ONE IN THE THERAPY OF HUNTINGTON DISEASE AND PHARMACEUTICALLY ACCEPTABLE FORM OF THE DRUG” (Uniwersytet Gdanski, priority 2016, dated 2018)

What was measured:
[1] = test system: acidic organelles; experiment: LysoTracker Red staining of acidic organelles (lysosomes), ImageJ analysis; type: cell-based, human; settings: 96 h, HEK293 transfected with pEGFP-Q74, LysoTracker Red (Fig. 5)
Source text: • Fig. 1. […] Error bars indicate standard deviation. […] Error bars indicate standard deviation. […] Error bars indicate standard deviation.

[2] = test system: human embryonic kidney cells (HEK293) transfected with plasmid pEGFP-Q74; experiment: MTT viability test of cells transfected with pEGFP-Q74; type: cell-based; settings: genistein 30, 60 and 100 µM, 48 h, MTT test (Fig. 3)
Description: (§1) • Fig. 1. Number and average size of huntingtin aggregates in human embryonic kidney cells transfected with plasmid pEGFP-Q74 (bearing the 1st exon of the HTT gene with 74 CAG repeats), treated with genistein (30, 60 and 100 µM) or DMSO (control cells), in a volume equal to that of genistein, for 48 h. Error bars indicate standard deviation. Statistical analysis was performed with the t-Student test. The differences were considered significant at p<0.05. • Fig. 2. Relative level of mutated huntingtin in human embryonic kidney cells transfected with plasmid pEGFP-Q74 (bearing the 1st exon of the HTT gene with 74 CAG repeats), treated with genistein (30, 60 and 100 µM) or DMSO (control cells), in a volume equal to that of genistein, for 96 h. Actin was used as an internal control. • Fig. 3. […] Intensity of bands was estimated using the Quantity One software. • Fig. 5. Number (calculated per one cell) and volume of acidic organelles in human embryonic kidney cells transfected with plasmid pEGFP-Q74 (bearing the 1st exon of the HTT gene with 74 CAG repeats), treated with genistein (30, 60 and 100 µM) or DMSO (control cells), in a volume equal to that of genistein, for 96 h. […] The co-localization Pearson factor was calculated by using the ImageJ software. […]

[3] = test system: huntingtin aggregates; experiment: Fluorescence microscopy of huntingtin aggregates in transfected cells; type: cell-based, human; settings: HEK293 transfected with pEGFP-Q74; genistein 30, 60 and 100 µM; 48 h; vs DMSO control (Fig. 1)
Description: as §1

[4] = test system: aggregates of mutated huntingtin with lysosomes; experiment: Co-localization of mutated huntingtin aggregates with lysosomes (fluorescence microscopy, Pearson coefficient); type: cell-based, human; settings: 100 µM genistein; 96 h; HEK293 transfected with pEGFP-Q74; vs DMSO control (Fig. 6)
Description: as §1, with “2.” for “2. Relative level of mutated huntingtin in human embryonic kidney cells transfected with plasmid pEGFP-Q74 (bearing the 1st exon of the HTT gene with 74 CAG repeats), treated with genistein (30, 60 and 100 µM) or DMSO (control cells), in a volume equal to that of genistein, for 96 h. Actin was used as an internal control. • Fig. 3.”
In order to test whether mutant huntingtin is transported into lysosomes for degradation, co-localization of aggregates of mutated huntingtin with lysosomes was assessed using a fluorescent microscope (Fig. 6). […]

[5] = test system: mutated huntingtin; experiment: Western blotting of mutated huntingtin with lysosomal function inhibited by chloroquine; type: cell-based, human; settings: in the presence of 10 µM chloroquine; genistein 30, 60 and 100 µM; 96 h; HEK293 transfected with pEGFP-Q74 (Fig. 7)
Description: as §1

[6] = test system: LC3-II protein; experiment: Immunodetection (Western blotting) of the autophagy marker LC3-II; type: cell-based, human; settings: 96 h
Description: as §1

[7] = test system: mutated huntingtin; experiment: Western blotting of the mutated huntingtin level; type: cell-based, human; settings: HEK293 transfected with pEGFP-Q74; genistein 30, 60 and 100 µM; 96 h; actin internal control (Fig. 2)
Description: as §1

O=c1c(-c2ccc(O)cc2)coc2cc(O)cc(O)c12 [genistein, 5,7-dihydroxy-3-(4-hydroxyphenyl)-4H-1-benzopiran-4-one]
number of acid organelles ([1]; 30 µM genistein): increase is visible | volume of acid organelles ([1]; 30 µM genistein): increase in the volume of acid organelles was evident | number of acid organelles ([1]; 100 µM genistein): difference relative to the control is significant | viability of cells [2]: increase in viability | number of mutant huntingtin aggregates in cells [3]: decrease in both size and number | size of mutant huntingtin aggregates in cells [3]: decrease in both size and number | co-localization of aggregates of mutated huntingtin with lysosomes [4]: increased significantly | level of mutated huntingtin [5]: did not change significantly | LC3-II protein amount ([6]; HEK293 transfected with pEGFP-Q74, genistein 30, 60 and 100 µM, vs DMSO control (Fig. 4)): genistein-concentration-dependent increase | fold induction at 100 µM ([6]; Homo sapiens, highest genistein concentration (100 µM), HEK293 transfected with pEGFP-Q74 (Fig. 4), read-out: LC3-II protein level relative to control experiment): ~4 | level of mutant huntingtin in cells [7]: significantly reduces
